We go through 1 molecule from patent US20220249598A1, “COMPOSITIONS TARGETING SPERM CALCINEURIN” (Kent State University, priority 2019, published 2022).

For data set [1], the system named is GSK3α. Kind of data set: GSK3 phosphorylation in sperm by Western blot. The format is cell-based, mouse. The conditions noted are these: FK506 20 nM during capacitation. How it is done:
(§1) The effect of calcineurin inhibitor on GSK3αβ phosphorylation was studied by Western blot procedure. Calcium dependence of calcineurin mediated GSK3α regulation was also checked. Both GSK3 activity and Calcineurin activity were measured in presence of FK506. FIG. 3 illustrates the regulation of GSK3α in mouse sperm by FK506. A) Modulation of phospho-serine/tyrosine profile GSK3α by FK506 (20 nM) during capacitation; for capacitation spermatozoa were incubated with ‘capacitation medium’, HTF or TYH for ˜90 min. B) phosphor-serine GSK3α status was checked during capacitation with TYH medium having high fatty acid containing BSA. C) Possible involvement of AKT in mediation of calcineurin induced regulation of GSK3α. D) Validation of involvement of extracellular calcium in GSK3α regulation; no calcium salt was added in the ‘−Ca^2+’ set, 10 μM BAPTA-AM was used to chelate intra-sperm Ca^2+ ions; […] phosphorylation was compared between wild type and ppp3r2 knockout sperm extract E) GSK3 activity of sperm cells under capacitating condition was checked using p^32radioactive ATP for phosphorylation of substrate. F) Co-relation among intracellular free calcium levels of different maturational stages of sperm cells with calcineurin activity was measured; for negative control, 20 nM of FK506 was used. All data represent mean±SEM of n=4 for all the values. *p≤0.05, **p≤0.01 versus control.

For data set [2] the following is noted: 0.1% tacrolimus formulations; cited from earlier work.
The conditions of data set [3]: cited from earlier work.
Data set [4] concerns oocytes. Briefly: IVF with oocytes pre-incubated with inhibitor, spermatozoa untreated. The format is cell-based, mouse. The conditions noted are these: oocytes incubated with same concentration of FK506 (20 nM). How it is done: FIG. 1 illustrates the effect of treatments of mouse caudal spermatozoa with calcineurin and GSK3 inhibitors on in vitro fertilization, indicated by two-cell stage formation. A) Spermatozoa were incubated under capacitating medium (viz. […] Additionally, oocytes were also incubated with same concentration of FK506, which it encounters during the IVF, the corresponding spermatozoa set was untreated. All data represent mean±SEM of n=3 for all the values. *p≤0.05 versus control. B) Dose response curve of FK506 at 0, 2.5, 5, 10, 20 & 50 nM concentration. C) Representative images showing effect of FK506 on IVF; black triangles directing the two-cell stage after fertilization of eggs.

Data set [5] concerns the target sperm calcineurin (Mus musculus, UniProt P26883+P48455+Q63811). Briefly: calcineurin activity in sperm. The format is biochemical.
Description: The effect of calcineurin inhibitor on GSK3αβ phosphorylation was studied by Western blot procedure. Calcium dependence of calcineurin mediated GSK3α regulation was also checked. Both GSK3 activity and Calcineurin activity were measured in presence of FK506. […] A) Modulation of phospho-serine/tyrosine profile GSK3α by FK506 (20 nM) during capacitation; for capacitation spermatozoa were incubated with ‘capacitation medium’, HTF or TYH for ˜90 min. B) phosphor-serine GSK3α status was checked during capacitation with TYH medium having high fatty acid containing BSA. C) Possible involvement of AKT in mediation of calcineurin induced regulation of GSK3α. D) Validation of involvement of extracellular calcium in GSK3α regulation; no calcium salt was added in the ‘−Ca^2+’ set, 10 μM BAPTA-AM was used to chelate intra-sperm Ca^2+ ions; CatSper1 phosphorylation was compared between wild type and ppp3r2 knockout sperm extract E) GSK3 activity of sperm cells under capacitating condition was checked using p^32radioactive ATP for phosphorylation of substrate. F) Co-relation among intracellular free calcium levels of different maturational stages of sperm cells with calcineurin activity was measured; for negative control, 20 nM of FK506 was used.
Data set [6] relates to sperm GSK3. Briefly: GSK3 activity of sperm cells with p32 radioactive ATP. To be noted: capacitating condition. The format is biochemical, mouse. How it is done: as §1
For data set [7], the system named is mouse sperm. Kind of data set: sperm motility / hyperactivation by computer assisted sperm analyzer (CASA). The format is cell-based. The conditions noted are these: FK506 treatment 120-180 min, capacitation; FIG. 2B. How it is done:
Another set of treated sperm cell was analyzed for its motility parameters using computer assisted sperm analyzer (CASA). Average path velocity (VAP), curvilinear velocity (VCL) and amplitude of lateral head displacement (ALH) were measured to assess hyperactivation. FIG. 2 illustrates the detection of FK506 induced defect in sperm motility and oocyte penetration. A) FK506 (20 nM) treated spermatozoa were used for both cumulus free zona intact oocytes as well as zona-free oocytes. B) Effect of FK506 treatment for (120-180 min) on sperm hyperactivation controlling parameters; VAP: average path velocity, VCL: curvilinear velocity, ALH: lateral head amplitude.

Data set [8] concerns mouse caudal spermatozoa. Kind of data set: in vitro fertilization (IVF) with inhibitor-treated spermatozoa, two-cell stage formation. The format is cell-based. How it is done:
Nanomolar doses of FK506 were used to treat spermatozoa and then use those cells were used for in vitro fertilization (IVF) assays. The treated spermatozoa were exposed to three different types oocyte conditions while performing IVF: a) regular IVF with intact oocyte-cumulus complex, b) cumulus-free intact oocyte and c) cumulus-free zona-free oocyte.
A) Spermatozoa were incubated under capacitating medium (viz. […] Additionally, oocytes were also incubated with same concentration of FK506, which it encounters during the IVF, the corresponding spermatozoa set was untreated. […] B) Dose response curve of FK506 at 0, 2.5, 5, 10, 20 & 50 nM concentration.

Data set [9] has as its system mouse caudal spermatozoa. Briefly: IVF of treated spermatozoa with cumulus-free zona-free oocytes. The format is cell-based. The conditions noted are these: FK506 20 nM, FIG. 2A. How it is done: Nanomolar doses of FK506 were used to treat spermatozoa and then use those cells were used for in vitro fertilization (IVF) assays. The treated spermatozoa were exposed to three different types oocyte conditions while performing IVF: a) regular IVF with intact oocyte-cumulus complex, b) cumulus-free intact oocyte and c) cumulus-free zona-free oocyte. FIG. 2 illustrates the detection of FK506 induced defect in sperm motility and oocyte penetration. A) FK506 (20 nM) treated spermatozoa were used for both cumulus free zona intact oocytes as well as zona-free oocytes. B) Effect of FK506 treatment for (120-180 min) on sperm hyperactivation controlling parameters; VAP: average path velocity, VCL: curvilinear velocity, ALH: lateral head amplitude.

SMILES strings stand for the structures. “Also recorded” adds a separate entry of the source.

As for `C=CC[C@@H]1/C=C(\C)C[C@H](C)C[C@H](OC)[C@H]2O[C@@](O)(C(=O)C(=O)N3CCCC[C@H]3C(=O)O[C@H](/C(C)=C/[C@@H]3CC[C@@H](O)[C@H](OC)C3)[C@H](C)[C@@H](O)CC1=O)[C@H](C)C[C@@H]2OC` [FK506, tacrolimus], the “net phosphorylation of sperm GSK3” value in data set [1] was “increase in the net phosphorylation”. In data set [2], the skin side effects result is listed as “increased sensitivity of skin, burning, stinging or itching sensations”. Moreover, the “titer of the drug in blood” value in data set [3] (0.1% tacrolimus formulations) was “nanomolar titer”. Also, the “bioavailability from an ointment formulation” value in [3] (topical ointment) was around 0.5%. The “reduction in fertilization after pre-treatment of oocytes” value in data set [4] is given as “did not result in any reduction in fertilization”. The “inhibition of sperm calcineurin” value in [5] is given as “inhibits sperm calcineurin at nanomolar level”. Also, the “catalytic activity of sperm GSK3” value in [6] is “decrease in catalytic activity”. Besides, the “hyperactivation of sperm (VAP, VCL, ALH)” value in data set [7] is given as “mostly unable to exhibit hyperactivity; also recorded: lack of attainment of hyperactivation”. Moreover, the “inhibition of sperm ability to fertilize eggs in vitro, dose response” value in [8] (FK506 at 0, 2.5, 5, 10, 20 & 50 nM) is “good enough to inhibit”. In data set [8] (sperm incubated 1 hr at 37° C. in capacitating medium, FK506 20 nM, cyclosporin A 10 μM, two-cell stage formation, FIG. 1A), the “inhibition of fertilizing ability of sperm in vitro” value was “significantly and independently inhibit; also recorded: inhibited fertilization”. The “fertilization of zona-free eggs by treated sperm” value in data set [9] was “not affecting sperm cells to fertilize zona-free eggs”.
